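Method: 48-hour compound exposure of cells in 96-well plates, five concentrations, linear interpolation of endpoints. At the GI50, growth is halved.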 Activity calls are given as the source filed them. Cut-off read from the data, not from the text of the source: active = GI50 up to about 1.1 µM and inactive = higher.
Columns and labels:
Assay in all cases: NCI anticancer screen, dose series, 48 h
A549 = tested on: A549
BT-549 = tested on: BT-549
DU-145 = tested on: DU-145
HOP-62 = tested on: HOP-62
IGROV-1 = tested on: IGROV-1
LOX IMVI = tested on: LOX IMVI
M14 = tested on: M14
MDA-MB-231 = tested on: MDA-MB-231
MDA-MB-435 = tested on: MDA-MB-435
Malme-3M = tested on: Malme-3M
NCI-H226 = tested on: NCI-H226
NCI-H522 = tested on: NCI-H522
OVCAR-8 = tested on: OVCAR-8
SK-OV-3 = tested on: SK-OV-3
SNB-19 = tested on: SNB-19
SW-620 = tested on: SW-620
U-251 = tested on: U-251
UACC-257 = tested on: UACC-257
UACC-62 = tested on: UACC-62
HCC 2998 = tested on: HCC 2998

Measured: GI50

O=C1Nc2ccccc2/C1=N/Nc1ncccc1[N+](=O)[O-]
inactive: A549 18 µM | BT-549 11.5 µM | DU-145 14.6 µM | HOP-62 12.9 µM | IGROV-1 2.09 µM | LOX IMVI 7.55 µM | M14 16.3 µM | MDA-MB-231 86.9 µM | MDA-MB-435 16.8 µM | Malme-3M 17.3 µM | NCI-H226 13.6 µM | NCI-H522 9.71 µM | OVCAR-8 17.6 µM | SK-OV-3 12.1 µM | SNB-19 19.9 µM | SW-620 8.13 µM | U-251 7.18 µM | UACC-257 23 µM | UACC-62 10.6 µM

COc1ccc2c(c1)CN1C(=N2)CSC1c1cc([N+](=O)[O-])ccc1Cl (stereo unspecified)
inactive: A549 33.2 µM | BT-549 22.5 µM | HCC 2998 33.1 µM | HOP-62 75.2 µM | IGROV-1 58.7 µM | LOX IMVI 31.3 µM | M14 31.6 µM | MDA-MB-231 54.5 µM | MDA-MB-435 19.4 µM | Malme-3M 55.8 µM | NCI-H226 42 µM | NCI-H522 32.3 µM | OVCAR-8 48.8 µM | SK-OV-3 45.3 µM | SNB-19 52.6 µM | SW-620 31 µM | U-251 40.6 µM | UACC-257 38.1 µM | UACC-62 23.2 µM

O=S(=O)(O)c1ccc2c(/N=N/c3ccc(Cl)cc3)c(O)ccc2c1
inactive: A549 > 100 µM | BT-549 > 100 µM | DU-145 > 100 µM | HOP-62 > 100 µM | IGROV-1 > 100 µM | LOX IMVI > 100 µM | M14 > 100 µM | MDA-MB-231 > 100 µM | MDA-MB-435 > 100 µM | Malme-3M > 100 µM | NCI-H522 > 100 µM | OVCAR-8 > 100 µM | SK-OV-3 > 100 µM | SNB-19 > 100 µM | SW-620 > 100 µM | U-251 > 100 µM | UACC-257 > 100 µM | UACC-62 > 100 µM

CC(=O)NNc1nc(-c2ccc([N+](=O)[O-])cc2)c(C#N)c(=O)n1C
inactive: A549 > 100 µM | BT-549 1.88 µM | DU-145 34.2 µM | HOP-62 26.9 µM | IGROV-1 16.8 µM | LOX IMVI 16.9 µM | M14 > 100 µM | MDA-MB-231 15.8 µM | MDA-MB-435 50.6 µM | Malme-3M > 100 µM | NCI-H522 22.1 µM | OVCAR-8 27 µM | SK-OV-3 > 100 µM | SNB-19 > 100 µM | SW-620 33.4 µM | U-251 20.8 µM | UACC-257 > 100 µM | UACC-62 66.8 µM

CC(C)(C)OC(=O)N1C(=O)OC[C@@H]2C=C[C@@H]21
inactive: A549 > 100 µM | BT-549 > 100 µM | DU-145 > 100 µM | HOP-62 > 100 µM | IGROV-1 > 100 µM | LOX IMVI > 100 µM | M14 > 100 µM | MDA-MB-231 > 100 µM | MDA-MB-435 > 100 µM | Malme-3M > 100 µM | NCI-H522 > 100 µM | OVCAR-8 > 100 µM | SK-OV-3 > 100 µM | SNB-19 > 100 µM | SW-620 > 100 µM | U-251 > 100 µM | UACC-257 > 100 µM | UACC-62 > 100 µM

Nc1ccccc1/C=C\c1ccccc1
inactive: A549 > 100 µM | BT-549 > 100 µM | DU-145 > 100 µM | HOP-62 > 100 µM | IGROV-1 > 100 µM | M14 > 100 µM | MDA-MB-435 > 100 µM | Malme-3M > 100 µM | NCI-H226 > 100 µM | OVCAR-8 > 100 µM | SK-OV-3 > 100 µM | SNB-19 > 100 µM | SW-620 > 100 µM | U-251 > 100 µM | UACC-257 > 100 µM | UACC-62 > 100 µM

O=C(O)C1CCCN1C(=O)c1cc(Cl)ccn1 (stereo unspecified)
inactive: A549 > 100 µM | BT-549 > 100 µM | DU-145 > 100 µM | HCC 2998 > 100 µM | HOP-62 > 100 µM | IGROV-1 > 100 µM | LOX IMVI > 100 µM | M14 > 100 µM | MDA-MB-435 > 100 µM | Malme-3M > 100 µM | NCI-H226 > 100 µM | NCI-H522 > 100 µM | OVCAR-8 > 100 µM | SNB-19 > 100 µM | SW-620 > 100 µM | U-251 > 100 µM | UACC-257 > 100 µM | UACC-62 > 100 µM

From ChEMBL document CHEMBL1201862, “PubChem BioAssay data set” (2004)
